Data reported in publication PMC9894685, “Abscisic acid agonists suitable for optimizing plant water use” (Frontiers in Plant Science, 2023).
Where “and” joins values, the source holds several entries; their conditions need not be identical. Identical values can stand only once. Like-named read-outs stand apart in the source and are kept apart here.

Columns and labels:
[1] = test system: Arabidopsis; parameters: method as in Vaidya et al., 2019; conditions: 50 µM; ref Vaidya et al., 2019; cited from earlier work
[2] = test system: tomato; parameters: method as in Vaidya et al., 2019; conditions: ref Vaidya et al., 2019; cited from earlier work
[3] = test system: wheat; parameters: method as in Vaidya et al., 2019; conditions: ref Vaidya et al., 2019; cited from earlier work
[4] = test system: RCAR11-ABI2; assay: Yeast ABA signal pathway LUC reporter, RCAR11-ABI2; type: cell-based, Arabidopsis thaliana
Description: The yeast cultivation and the life luciferase assay were performed as described ([Ruschhaupt et al., 2019]). Briefly, the reporter yeast expressing an ABA-dependent luciferase gene (LUC) was transformed with different combinations of ABA signaling components as indicated. Golden gate cloning ([Binder et al., 2014]) was used to construct pYEAST_LII_5‐6_CEN_URA vector with TDH3 promoter and TDH1 terminator (tTDH1), pYEAST_LII_1‐2_CEN_LEU vector with GK1 promoter and tTDH1, and pYEAST_LII_3‐4_CEN_TRP with the GAL1 promoter (pGAL1) and tTDH1 to express RCARs, PP2Cs, and OST1 (SnRK2.6), respectively ([Ruschhaupt et al., 2019]). The expression of ABF2 in yeast relies on a modified pGREG503 vector, in which pGAL1 ([Jansen et al., 2005]) was replaced by the ADH1 promoter.
Colonies of freshly transformed cells were inoculated in 0.5 mL supplemented synthetic dextrose (SD) medium and incubated at 30°C in a gyratory shaker (Thermoshake-THO500, Gerhardt, Königswinter, Germany) at 200 rpm for 16-18 h. After overnight growth, the cells were harvested and washed in SD medium followed by inoculation in SD medium containing 2% galactose for induction of SnRK2 kinases under the control of the GAL1 promoter and supplementation with ligands at indicated concentrations, to an OD600 of 0.2 in flat-bottom 96-well plates (CytoOne, Starlab, Hamburg, Germany). Yeast cultures were incubated at 30°C and 200 rpm for 16-18 h before determination of LUC activity and cell density. Light emission of yeasts was detected in a HIDEX plate luminometer (HIDEX, Turku, Finland) after injection of 100 µL freshly prepared luciferin substrate (1 mM D-luciferin, Promega) provided in 100 mM citric acid, pH 3 ([Leskinen et al., 2003]) for 5 s and was corrected for background. The LUC activity was normalized to the cell density (OD600) measured in 96-well flat plates (Sarstedt, Nümbrecht, Germany). LUC activity is given as the ratio of light emission to OD600 in counts per second.

[5] = target: T1, RCAR1-ABI2 (Arabidopsis thaliana, UniProt O04719+Q84MC7); assay: In vitro phosphatase assay, ABI2 with RCAR1; type: biochemical
T1 construct: 6xHis (N); made in house; host or cells: Escherichia coli BL21
T1 sequence (Q84MC7 1-187): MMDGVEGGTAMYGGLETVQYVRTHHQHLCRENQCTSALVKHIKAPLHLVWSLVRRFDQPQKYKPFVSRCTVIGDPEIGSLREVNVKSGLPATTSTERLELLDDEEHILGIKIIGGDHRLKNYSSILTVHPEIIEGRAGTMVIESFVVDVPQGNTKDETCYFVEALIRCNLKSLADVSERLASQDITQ
T1 sequence (O04719 1-423): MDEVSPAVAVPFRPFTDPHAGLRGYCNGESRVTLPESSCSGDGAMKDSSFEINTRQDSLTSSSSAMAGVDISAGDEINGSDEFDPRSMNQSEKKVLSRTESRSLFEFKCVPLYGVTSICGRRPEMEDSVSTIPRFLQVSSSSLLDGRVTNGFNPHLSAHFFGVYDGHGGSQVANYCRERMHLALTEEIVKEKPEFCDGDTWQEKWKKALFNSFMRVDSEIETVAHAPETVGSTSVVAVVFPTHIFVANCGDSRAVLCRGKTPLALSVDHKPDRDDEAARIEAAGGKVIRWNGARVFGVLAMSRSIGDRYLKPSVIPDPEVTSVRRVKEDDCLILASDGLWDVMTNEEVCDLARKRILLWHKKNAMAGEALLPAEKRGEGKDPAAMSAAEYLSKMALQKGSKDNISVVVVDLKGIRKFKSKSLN
Description: (§1) Expression, purification, and analysis of RCAR and PP2C proteins were performed essentially as described ([Ruschhaupt et al., 2019]). Briefly, the ABA receptors RCAR1, RACR8, and RCAR11 were expressed with an aminoterminal histidine tag using the pSEVA431_LII_6xHIS::RCAR1/RCAR8/RCAR11. ABA coreceptors were expressed as histidine-tagged fusions with the maltose-binding protein using the pSEVA431_LII_6xHIS::MBP::ABI2/HAB1. All constructs were transformed and expressed in Escherichia coli strain BL21 and purified to homogeneity according to supplier’s instruction (GE Healthcare, Chicago, USA). The receptor assay was performed with 100 nM PP2C and a two-fold molar excess of RCAR. Values are means ± SD of three replicates. […] The maximum inhibition was set to 100% in the figures. The phosphatase activity was measured using 4-methylumbelliferyl-phosphate as a substrate ([Meinhard and Grill, 2001]). The increase in fluorescence was recorded over 25 min with excitation and emission wavelengths at 360 and 460 nm, respectively, using a Synergy 2 plate reader (Bio-Tec, Winooski, USA).

[6] = test system: Arabidopsis plants; assay: Foliar administration and thermal imaging of leaf temperature (transpiration), Arabidopsis; type: in vivo, Arabidopsis thaliana
Description: (§2) Thermal imaging was carried out as described ([Yang et al., 2016]). An assessment of the efficacy of ABA and CCPs was conducted by using 35-day-old Arabidopsis and 30-day-old wheat plants. Stock solutions (10 mM) of CCPs and ABA dissolved in dimethyl sulfoxide (DMSO) were diluted to the respective ligand concentrations (10, 30, 100 µM) in water containing 0.01% (v/v) Tween 20. Aqueous Tween 20 solutions supplemented with 0.1%, 0.3%, and 1% DMSO served for mock treatments. The solutions were sprayed onto the leaf surface until the run-off of droplets. One day after application (unless otherwise indicated), thermal imaging was conducted using the InfraTec instrument (IR-TCM 384, InfraTec, Dresden, Germany). The leaf temperature of Arabidopsis was determined as the average temperature of all leaves. The leaf temperature of wheat was determined as described ([Yang et al., 2019]).

[7] = test system: Arabidopsis plants; assay: Progressive drought experiment: growth, water consumption, WUE; type: in vivo, Arabidopsis thaliana; conditions: 30 µM
Description: The progressive drought experiment was performed as described ([Yang et al., 2016]). Briefly, 18-day-old Arabidopsis plantlets grown under well-watered and short-day conditions (8 h light with 150 µmol m^-2 s^-1 PAR, 22°C, 50% relative humidity, and 16 h dark with 17°C, 60% relative humidity) were transferred to 0.2 L pots loaded with water-saturated soil (33.4 ± 0.4 g dry soil with 148 ± 2 g water). At the onset of the progressive drought (day 0), water was withheld, and a sealed soil surface prevented evaporation. A slowly increasing water deficit was achieved by transpirational water loss from plants. The progressive drought experiment lasted for eight weeks until mock-treated plants had consumed all the plant-usable water. […] For measuring growth and water consumption, leaf rosettes were regularly photographed, and the pots were weighed. The projected leaf area of Arabidopsis rosettes was analyzed by using Photoshop Elements software (Adobe, San Jose, USA). The consumed water was calculated as the difference in pot weight between day 0 and the designated days. The retained water was expressed as the difference between the pot weight at the end of the drought (day 57) and the weight of the loaded dry soil. Above-ground material was harvested at day 57, and the biomass was determined after drying the material for three days at 60°C to achieve constant weight. WUE was calculated as the ratio of above-ground dry biomass to consumed water. The data for the mock- and ABA-treated plants in the progressive drought experiment were already published ([Yang et al., 2019]).

[8] = test system: wheat plants; assay: Foliar administration and thermal imaging of leaf temperature, wheat; type: in vivo, Triticum aestivum
Description: as §2

[9] = test system: ABI2 with RCARs; assay: In vitro receptor assay, ABI2 in the presence of RCAR1, RCAR8 or RCAR11; type: biochemical, Arabidopsis thaliana
Description: as §1

[10] = test system: HAB1 with RCARs; assay: In vitro receptor assay, HAB1 in the presence of RCARs; type: biochemical, Arabidopsis thaliana; conditions: HAB1, in the presence of RCARs and saturating ABA levels (1 mM)
Description: as §1

[11] = test system: Arabidopsis plants; parameters: method as in Yang et al., 2019; conditions: ref Yang et al., 2019, cited from earlier work
[12] = test system: Arabidopsis aba2-1 protoplasts; assay: Transient ABA response in Arabidopsis protoplasts (pRD29B::LUC, RCAR11 and ABI2 effectors); type: cell-based, Arabidopsis thaliana; conditions: aba2-1 protoplasts, 18 h ligand exposure
Description: Preparation of Arabidopsis protoplasts, transfection of the effector DNA, and analysis of LUC activity were performed as described ([Tischer et al., 2017]). In essence, 10^5 mesophyll protoplasts from leaves of the ABA deficient mutant aba2-1 ([Schwartz et al., 1997]) were transfected with 4 µg DNA of the pRD29B::LUC construct as an ABA-responsive reporter and 3 µg of p35S::GUS (β-glucuronidase reporter gene) expression cassette as an internal control for normalization. In addition, 3 µg p35S::RCAR11 or the empty vector with the same expression cassette were co-expressed with 0.1 µg p35S::ABI2 effector constructs ([Tischer et al., 2017]), and the ligand-dependent induction of ABA-responsive reporter expression were assessed after incubation at 22°C. The expression of LUC and GUS was determined 18 h after transfection and ligand administration.

[13] = test system: pig liver esterase; assay: De-esterification of CCPs by pig liver esterase (HPLC); type: in vitro ADME; conditions: 4 nkat pig liver esterase, 2 h, 25°C
From the text: (S)-ABA was purchased from CHEMOS (www.chemos.de). Other chemicals were of the highest purity available and obtained from SigmaAldrich (www.sigmaaldrich.com), ROTH (www.carlroth.com), and J. T. Baker (http://www.avantormaterials.com) unless otherwise indicated. The Arabidopsis (Arabidopsis thaliana) accession Col-0 was received from the Nottingham Arabidopsis Stock Center. The elite wheat (Triticum aestivum) cultivar, Elixer, was provided from Bayerische Landesanstalt für Landwirtschaft, Freising. ABA and CCPs were dissolved in DMSO and diluted to designated concentrations before administration. For de-esterification, 0.2 µmol CCP was treated with 4 nkat pig liver esterase (Sigma-Aldrich, Burlington, MA, USA) for 2 h at 25°C according to supplier’s instruction.

## N#Cc1c(C2CC2)cc(CC(=O)NC2(C(=O)O)CCCCC2)cc1C1CC1 [Opabactin]
[1]
  Efficacy in elevating leaf temperature: ABA-comparable efficacy
[2]
  Efficiency in controlling transpiration compared to ABA: more efficient than ABA
[3]
  Activity in controlling transpiration compared to ABA: comparable activity

## CC1=CC(=O)CC(C)(C)[C@@]1(O)/C=C/C(C)=C\C(=O)O [ABA, abscisic acid]
[4]; 30 µM exogenous ligand, 16 h exposure
  LUC reporter induction compared to mock-treated cells: approximately eightfold
[5]
  IC50: 100 nM
[6]; 10 µM
  Time until leaf temperature reached starting values: eight
[6]; after single administration
  Time of optimum of inhibited transpiration: between two and four days after administration
[7]
  Daily growth reduction: 1%
[8]; 0.1 mM, one day after administration, averaged from six experiments
  Higher leaf temperature compared to the control: approximately 0.8 °C
[8]; 24 h, separate experiments run in parallel to the CCPs
  Leaf temperature increase at 100 μM ABA: 0.6 ± 0.18 °C and 0.9 ± 0.19 °C and 0.6 ± 0.12 °C and 0.9 ± 0.03 °C and 0.9 ± 0.10 °C and 0.9 ± 0.07 °C
[9]; ABI2, in the presence of RCARs and saturating ABA levels (1 mM)
  Residual phosphatase activity: 10%
[10]
  Residual phosphatase activity: 4%
[11]; 10 µM, for six weeks
  Growth of leaf rosettes compared to mock: indistinguishable
[11]; 10 µM
  WUE increase: 14%
[11]; 30 µM, day 57
  Soil water retained at the end of the drought, of initial soil water: about 25%
[11]; 30 µM, within 19 days
  Reduced projected leaf area: 20%
[11]; 30 µM
  Growth of leaf rosettes compared to mock: growth reduction
  WUE increase: 26%

## CCCOC(=O)/C=C(\C=C\C(O)(C(C)C)C1(C#N)CC1)CC (stereo not drawn) [CCP3]
[4]; 30 µM, PLE-treated prior to yeast exposure
  Reporter activation after pig liver esterase treatment: comparable to esterase-treated CCP2 and ABA
[12]
  Induction of ABA signaling compared to ABA: not observed
[6]; 10, 30, 100 µM, one day after application
  Leaf temperature increase, activity compared to ABA: almost as active as the non-esterified CCP2
[6]; single application 100 µM, recorded for 19 days
  Activity and persistence of minimized transpiration compared to ABA: more active and persistent than ABA
[7]
  Growth reduction compared to the control: about 60%
[7]; 24 h after the first application
  Leaf temperature increase: highest temperature increase
[7]; day 57
  Reduction in biomass accumulation compared to the control: 60%
  Soil water retained at the end of the drought, of initial soil water: approximately 75%
[7]; three administrations
  Growth of leaf rosettes compared to mock: growth reduction
[8]; 100 μM, 24 h after administration
  Leaf temperature increase, activity compared to ABA: higher activity than ABA
[13]
  Degree of ester-bond cleavage by PLE (conversion into free acid): complete de-esterification
[9]; pig liver esterase-treated
  Activity in the in vitro receptor assay after esterase treatment: comparable activity as CCP2
